Experimental data taken from PubChem BioAssay (NCI).
Where “and” joins values, the source holds several entries; their conditions need not be identical. Identical values can stand only once.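 These data come from cells grown in 96-well plates and exposed to compound for 48 hours at five concentrations. Abbreviation: GI50, concentration required for 50% inhibition of growth. TGI: concentration producing complete growth inhibition.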

Columns and labels:
Assay in all cases: inhibition of tumour cell growth, NCI panel, 48 h
SK-MEL-5 melanoma = system: SK-MEL-5 melanoma
LOX IMVI melanoma = system: LOX IMVI melanoma
SK-OV-3 ovarian = system: SK-OV-3 ovarian
HCT-116 colon = system: HCT-116 colon
UO-31 renal = system: UO-31 renal
K-562 leukemia = system: K-562 leukemia
HT29 colon = system: HT29 colon
SN12C renal = system: SN12C renal
SF-539 CNS = system: SF-539 CNS

## NC(=Nc1ccccc1)c1ccccc1N
SK-MEL-5 melanoma
  TGI: > 100 µM
LOX IMVI melanoma
  TGI: > 100 µM
SK-OV-3 ovarian
  TGI: > 100 µM
HCT-116 colon
  TGI: > 100 µM
UO-31 renal
  TGI: > 100 µM
K-562 leukemia
  TGI: > 100 µM
HT29 colon
  TGI: > 100 µM

## CN(Cc1cnc2nc(N)nc(N)c2n1)c1ccc(C(=O)NC(CCC(=O)NC(CC(P(=O)(O)O)P(=O)(O)O)C(=O)O)C(=O)O)cc1 (centres undefined)
SK-MEL-5 melanoma
  TGI: > 100 µM
LOX IMVI melanoma
  TGI: > 100 µM
SK-OV-3 ovarian
  TGI: > 100 µM
HCT-116 colon
  TGI: > 100 µM
SN12C renal
  TGI: > 100 µM
UO-31 renal
  TGI: > 100 µM
HT29 colon
  TGI: > 100 µM

## CC(=O)NC1(C(=O)N[C@@H](Cc2ccccc2)C(=O)NC2CCCCC2)Cc2ccc3ccccc3c2-c2c(ccc3ccccc23)C1
SK-MEL-5 melanoma
  GI50: 2.9 µM and 6.71 µM
  TGI: 12.1 µM and 23.7 µM
LOX IMVI melanoma
  TGI: > 100 µM
SK-OV-3 ovarian
  GI50: 27.6 µM and > 100 µM
  TGI: > 100 µM
HCT-116 colon
  TGI: > 100 µM
UO-31 renal
  GI50: 2.8 µM and 11.8 µM
  TGI: 22.9 µM and 45.9 µM
K-562 leukemia
  GI50: 2.7 µM and 7.67 µM
  TGI: > 100 µM
HT29 colon
  TGI: > 100 µM and 57.5 µM

## COc1ccc([C@]23CCN4COC[C@@H]([C@H]42)C2(CC3)OCC(C)(C)CO2)cc1OC
SK-MEL-5 melanoma
  TGI: > 100 µM
LOX IMVI melanoma
  TGI: > 100 µM
SK-OV-3 ovarian
  TGI: > 100 µM
HCT-116 colon
  TGI: > 100 µM
SN12C renal
  TGI: > 100 µM
UO-31 renal
  TGI: > 100 µM
K-562 leukemia
  TGI: > 100 µM
HT29 colon
  TGI: > 100 µM

## Cc1c2ccccc2c(C)n2c1nc1ccccc12
SK-MEL-5 melanoma
  TGI: 16 µM
SF-539 CNS
  TGI: 18.6 µM
SK-OV-3 ovarian
  TGI: 27.1 µM
HCT-116 colon
  TGI: > 100 µM
SN12C renal
  TGI: 30.9 µM
UO-31 renal
  TGI: 24.1 µM
K-562 leukemia
  TGI: > 100 µM
HT29 colon
  TGI: 69 µM

## Clc1ccc(C2CC(c3cccc(Nc4ccncc4)c3)=NN2c2cc(Cl)cc(Cl)c2)cc1 (centres undefined)
SK-MEL-5 melanoma
  GI50: 1.83 µM
  TGI: 3.38 µM
SF-539 CNS
  GI50: 1.69 µM
  TGI: 3.2 µM
SK-OV-3 ovarian
  GI50: 1.89 µM
  TGI: 3.83 µM
SN12C renal
  GI50: 1.73 µM
  TGI: 3.29 µM
UO-31 renal
  GI50: 1.34 µM
  TGI: 2.77 µM
K-562 leukemia
  GI50: 2.55 µM
  TGI: 6.12 µM

## O=C1C2=C(SCCS2)C(=O)c2c(Sc3ccc(Cl)cc3)c(Sc3ccc(Cl)cc3)c(Sc3ccc(Cl)cc3)c(Sc3ccc(Cl)cc3)c21
SK-MEL-5 melanoma
  TGI: > 100 µM
SK-OV-3 ovarian
  TGI: > 100 µM
HCT-116 colon
  TGI: > 100 µM
SN12C renal
  TGI: > 100 µM
UO-31 renal
  TGI: > 100 µM

## CC(C)(C)OC(=O)N1[C@@H]2Cc3ccc(N)cc3[C@@]1(C)c1ccccc12
SK-MEL-5 melanoma
  TGI: 12.4 µM
LOX IMVI melanoma
  TGI: 62.1 µM
SK-OV-3 ovarian
  TGI: > 100 µM
HCT-116 colon
  TGI: 37.1 µM
SN12C renal
  TGI: 30.7 µM
UO-31 renal
  TGI: > 100 µM
K-562 leukemia
  TGI: 62.6 µM
HT29 colon
  TGI: 44.1 µM

## COP(=O)(O)C(N)Cc1c[nH]c2ccccc12 (centres undefined)
SK-MEL-5 melanoma
  TGI: > 100 µM
LOX IMVI melanoma
  TGI: > 100 µM
SK-OV-3 ovarian
  TGI: > 100 µM
HCT-116 colon
  TGI: > 100 µM
SN12C renal
  TGI: > 100 µM
UO-31 renal
  TGI: > 100 µM
K-562 leukemia
  TGI: > 100 µM
HT29 colon
  TGI: > 100 µM
